Values after ≈ are worked out from the molar mass of the structure shown. Starred links: 1 amine or outer side, 2 acyl side, 3 side chain; linkers in the order of their positions; H or OH if unused. Non-standard residues stand in square brackets, D forms with d. Residues, ends and D or L forms follow the SMILES beside them. X1 = C=CCOC(=O)N1CC[C@@](N[*:1])(C(=O)[*:2])C1; X2 = C=CCCCC(CCCC=C)(N[*:1])C(=O)[*:2]; Bta = N[C@@H](Cc1csc2ccccc12)C(=O)O; αAllylPro = C=CC[C@@]1(C(=O)O)CCCN1; R8 = C=CCCCCCC[C@@](C)(N)C(=O)O; S8 = C=CCCCCCC[C@](C)(N)C(=O)O
Key:
[1] = Solubility in PBS; format: physicochemical
Outline: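 HPLC quantitation of peptide remaining in the PBS supernatant after ultracentrifugation, referenced to a 50 μM solution in DMSO.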

[2] = CHI Log D procedure; format: physicochemical; conditions: for CHI Log D: pH 7.4; for chromatographic logD: pH 7.4, CHI Log D

Solubility [1] [µM] | CHI Log D [2] | chromatographic logD [2] | solubility at 15 min ([1]; Solubility (uM)) [µM] | SMILES
45 (≈ 83.8 µg/mL) | 1.863 | – | – | C=CC(=O)NC[C@H](NC(=O)[C@]1(C)CCCCCCC=CCCCC2(CCCC=CC[C@]3(CCCN3C(C)=O)C(=O)N[C@@H](CC(=O)O)C(=O)N[C@@H]([C@@H](C)CC)C(=O)N2)C(=O)N[C@@H](CC(=O)O)C(=O)N[C@@H](CC(=O)O)C(=O)N[C@@H](C)C(=O)N[C@@H](C)C(=O)N[C@@H](Cc2ccccc2)C(=O)N[C@@H](CCC(N)=O)C(=O)N1)C(=O)N[C@@H](Cc1csc2ccccc12)C(=O)N[C@@H](CCC(N)=O)C(N)=O (stereo partly drawn) [I-484, Ac-PL3-Asp-Ile-B5-Asp-Asp-Ala-Ala-Phe-Gln-S8-[Acryl]Dap-BztA-Gln-NH2]
41 (≈ 74.9 µg/mL) | 2.456 | – | – | CC(=O)N1CCC[C@]12CC=CCCCC1(CCCC=CCCCCCC[C@@](C)(C(=O)N[C@@H](Cc3ccccc3)C(=O)N[C@@H](Cc3csc4ccccc34)C(=O)N[C@@H](CCC(N)=O)C(N)=O)NC(=O)[C@H](CCC(N)=O)NC(=O)[C@H](Cc3ccccc3)NC(=O)[C@H](C)NC(=O)[C@H](C)NC(=O)[C@H](CCC(=O)O)NC(=O)[C@H](CCO)NC1=O)NC(=O)[C@H](C)NC(=O)[C@H](CC(=O)O)NC2=O (stereo partly drawn) [I-496, Ac-PL3-Asp-Ala-B5-Hse-Glu-Ala-Ala-Phe-Gln-S8-Phe-BztA-Gln-NH2]
29 (≈ 53 µg/mL) | 2.6 | – | – | CC(=O)N1CCC[C@]12CC=CCCCC1(CCCC=CCCCCCC[C@@](C)(C(=O)N[C@@H](Cc3ccccc3)C(=O)N[C@@H](Cc3csc4ccccc34)C(=O)N[C@@H](CCC(N)=O)C(N)=O)NC(=O)[C@H](CCC(N)=O)NC(=O)[C@H](Cc3ccccc3)NC(=O)[C@H](C)NC(=O)[C@H](C)NC(=O)[C@H](CCC(=O)O)NC(=O)[C@H](CCO)NC1=O)NC(=O)[C@H](C)NC(=O)[C@H](CC(=O)O)NC2=O (stereo partly drawn) [I-497, Ac-PL3-Asp-Ala-B5-Hse-Glu-Ala-Ala-Phe-Gln-S8-Phe-BztA-Gln-NH2]
42 (≈ 76.7 µg/mL) | 2.637 | – | – | CC(=O)N1CCC[C@]12CC=CCCCC1(CCCC=CCCCCCC[C@@](C)(C(=O)N[C@@H](Cc3ccccc3)C(=O)N[C@@H](Cc3csc4ccccc34)C(=O)N[C@@H](CCC(N)=O)C(N)=O)NC(=O)[C@H](CCC(N)=O)NC(=O)[C@H](Cc3ccccc3)NC(=O)[C@H](C)NC(=O)[C@H](C)NC(=O)[C@H](CCC(=O)O)NC(=O)[C@H](CCO)NC1=O)NC(=O)[C@H](C)NC(=O)[C@H](CC(=O)O)NC2=O (stereo partly drawn) [I-498, Ac-PL3-Asp-Ala-B5-Hse-Glu-Ala-Ala-Phe-Gln-S8-Phe-BztA-Gln-NH2]
50 (≈ 93.8 µg/mL) | 2.854 | – | – | CC(=O)N1CCC[C@]12CC=CCCCC1(CCCC=CCCCCCC[C@@](C)(C(=O)N[C@@H](Cc3ccccc3)C(=O)N[C@@H](Cc3csc4ccccc34)C(=O)N[C@@H](CCC(N)=O)C(N)=O)NC(=O)[C@H](CC(N)=O)NC(=O)[C@H](Cc3ccccc3)NC(=O)[C@H](C)NC(=O)[C@H](C)NC(=O)[C@H](CCC(=O)O)NC(=O)[C@H](CNS(C)(=O)=O)NC1=O)NC(=O)[C@H](C)NC(=O)[C@H](CC(=O)O)NC2=O (stereo partly drawn) [I-529, Ac-PL3-Asp-Ala-B5-[MeSO2]Dap-Glu-Ala-Ala-Phe-Asn-S8-Phe-BztA-Gln-NH2]
50 (≈ 93.8 µg/mL) | 2.935 | – | – | CC(=O)N1CCC[C@]12CC=CCCCC1(CCCC=CCCCCCC[C@@](C)(C(=O)N[C@@H](Cc3ccccc3)C(=O)N[C@@H](Cc3csc4ccccc34)C(=O)N[C@@H](CCC(N)=O)C(N)=O)NC(=O)[C@H](CC(N)=O)NC(=O)[C@H](Cc3ccccc3)NC(=O)[C@H](C)NC(=O)[C@H](C)NC(=O)[C@H](CCC(=O)O)NC(=O)[C@H](CNS(C)(=O)=O)NC1=O)NC(=O)[C@H](C)NC(=O)[C@H](CC(=O)O)NC2=O (stereo partly drawn) [I-530, Ac-PL3-Asp-Ala-B5-[MeSO2]Dap-Glu-Ala-Ala-Phe-Asn-S8-Phe-BztA-Gln-NH2]
43 (≈ 81.3 µg/mL) | 2.794 | – | – | CC(=O)N1CCC[C@]12CC=CCCCC1(CCCC=CCCCCCC[C@@](C)(C(=O)N[C@@H](Cc3ccccc3)C(=O)N[C@@H](Cc3csc4ccccc34)C(=O)N[C@@H](CCC(N)=O)C(N)=O)NC(=O)[C@H](CC(N)=O)NC(=O)[C@H](Cc3ccccc3)NC(=O)[C@H](C)NC(=O)[C@H](C)NC(=O)[C@H](CCC(=O)O)NC(=O)[C@H](CCNS(C)(=O)=O)NC1=O)NC(=O)[C@H](C)NC(=O)[C@H](CC(=O)O)NC2=O (stereo partly drawn) [I-531, Ac-PL3-Asp-Ala-B5-[MeSO2]Dab-Glu-Ala-Ala-Phe-Asn-S8-Phe-BztA-Gln-NH2]
42 (≈ 79.4 µg/mL) | 2.858 | – | – | CC(=O)N1CCC[C@]12CC=CCCCC1(CCCC=CCCCCCC[C@@](C)(C(=O)N[C@@H](Cc3ccccc3)C(=O)N[C@@H](Cc3csc4ccccc34)C(=O)N[C@@H](CCC(N)=O)C(N)=O)NC(=O)[C@H](CC(N)=O)NC(=O)[C@H](Cc3ccccc3)NC(=O)[C@H](C)NC(=O)[C@H](C)NC(=O)[C@H](CCC(=O)O)NC(=O)[C@H](CCNS(C)(=O)=O)NC1=O)NC(=O)[C@H](C)NC(=O)[C@H](CC(=O)O)NC2=O (stereo partly drawn) [I-532, Ac-PL3-Asp-Ala-B5-[MeSO2]Dab-Glu-Ala-Ala-Phe-Asn-S8-Phe-BztA-Gln-NH2]
50 (≈ 94.2 µg/mL) | – | 2.26 | – | C=CCCCCCC[C@](C)(NC(=O)[C@H](CCC(N)=O)NC(=O)[C@H](Cc1ccccc1)NC(=O)[C@H](C)NC(=O)[C@H](C)NC(=O)[C@H](CC(=O)O)NC(=O)[C@H](CC(=O)O)NC(=O)C(CCCC=C)(CCCC=C)NC(=O)[C@H](C)NC(=O)[C@H](CC(=O)O)NC(=O)[C@]1(CC=C)CCCN1C(C)=O)C(=O)N[C@@H](Cc1ccccc1)C(=O)N[C@@H](Cc1csc2ccccc12)C(=O)N[C@@H](CCC(N)=O)C(N)=O [I-578, Ac-PL3-Asp-Ala-B5-Asp-Asp-Ala-Ala-Phe-Gln-S8-Phe-BztA-Gln-NH2] (Ac-[αAllylPro]DA[X2]DDAAFQ[S8]F[Bta]Q-NH2)
– | – | 1.51 | 45 (≈ 84.6 µg/mL) | C=CCCCCCC[C@@](C)(NC(=O)[C@H](C)NC(=O)[C@H](CC(=O)O)NC(=O)[C@H](Cc1ccccc1)NC(C)=O)C(=O)N[C@@H](CC(=O)O)C(=O)N[C@@H](CC(=O)O)C(=O)N[C@@H](C)C(=O)N[C@@H](C)C(=O)N[C@@H](Cc1ccccc1)C(=O)N[C@@H](CCC(N)=O)C(=O)N[C@@]1(C(=O)N[C@@H](Cc2ccccc2)C(=O)N[C@@H](Cc2c[nH]c3ccccc23)C(=O)N[C@@H](CCC(N)=O)C(N)=O)CCN(C(=O)OCC=C)C1 [I-579, Ac-Phe-Asp-Ala-R8-Asp-Asp-Ala-Ala-Phe-Gln-PyrS-Phe-Trp-Gln-NH2] (Ac-FDA[R8]DDAAFQ[X1]FWQ-NH2)
50 (≈ 94.2 µg/mL) | 2.364 | – | – | CC[C@H](C)[C@@H]1NC(=O)[C@H](CC(=O)O)NC(=O)[C@]2(CC=CCCCC3(CCCC=CCCCCCC[C@@](C)(C(=O)N[C@@H](Cc4ccccc4)C(=O)N[C@@H](Cc4ccccc4)C(=O)N[C@@H](CCC(N)=O)C(N)=O)NC(=O)[C@H](CCC(N)=O)NC(=O)[C@H](Cc4csc5ccccc45)NC(=O)[C@H](C)NC(=O)[C@H](C)NC(=O)[C@H](CCC(=O)O)NC(=O)[C@H](CC(=O)O)NC3=O)NC1=O)CCCN2C(C)=O (stereo partly drawn) [I-585, Ac-PL3-Asp-Ile-B5-Asp-Glu-Ala-Ala-BztA-Gln-S8-Phe-Phe-Gln-NH2]
